Laboratory results reported in patent US6689806B1, “Indolinone compounds as kinase inhibitors” (Sugen, Inc., priority 1999, dated 2004).
Read-outs that look alike come from different tables or passages of the source.

Experiments:
EGFR [1] = target: T1, EGFR (Homo sapiens, UniProt P00533); test: Biochemical EGFR assay (ELISA); set-up: A431 cell lysate; endogenous in cells; host or cells: A431; conditions: read-out: EGFr biochem IC50
Procedure, shortened: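 EGFR is captured from cell lysate onto SUMO1-coated plates and incubated with compound diluted in TBS. The kinase reaction is stopped after 5 min with EDTA. Substrate phosphotyrosine is detected with anti-phosphotyrosine and peroxidase-linked secondary antibody, then ABTS/H2O2 read at 410 nm (reference 630 nm).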

Her2 = target: T2, Her2 (Homo sapiens, UniProt P04626); test: EGF-induced Her2-driven BrdU incorporation; assay type: cell-based; conditions: 3T3 cells with EGF-R/Her2 chimeric receptor, EGF 2 nM, read-out: BrdU DNA syn. HER2 IC50
T2 construct: fused on or other part: P00533 (Epidermal growth factor receptor)
Procedure, shortened: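 3T3 cells expressing an EGF-R extracellular/Her2 intracellular chimera were serum-starved 24 h, then given compound (7 concentrations) together with 2 nM EGF. After 20 h, BrdU (final […]) was added for 1.5 h. Incorporation was detected with anti-BrdU antibody, read at 410 nm against 490 nm reference.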

PDGFR = PDGFR (Homo sapiens, UniProt P09619); test: Biochemical PDGFR assay (ELISA); set-up: expressed in transfected cells; host or cells: NIH 3T3; conditions: read-out: PDGFr biochem IC50
Procedure, shortened: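 PDGFR-β from NIH 3T3 cell lysate captured on 28D4C10-coated plates; compound preincubated 30 min, then 20 μM ATP for 30 min at room temperature and stopped with EDTA. Phosphotyrosine detected by anti-phosphotyrosine ELISA with peroxidase secondary and ABTS, read at 410 nm.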

EGFR [2] = target: T1, EGFR; test: EGF-induced BrdU incorporation assay; assay type: cell-based; set-up: expressed in transfected cells; host or cells: 3T3; conditions: 3T3 cells expressing human EGF-R, EGF 2 nM, read-out: BrdU DNA syn. EGFr IC50
Experimental: The cellular/biologic assays described herein measure the amount of DNA made in response to activation of a test kinase, which is a general measure of a proliferative response. The general procedure for this assay is as follows: a compound is introduced to cells expressing the test kinase, either naturally or recombinantly, for some period of time after which, if the test kinase is a receptor, a ligand known to activate the receptor is added. After incubation at least overnight, a DNA labeling reagent such as Bromodeoxy-uridine (BrdU) or 3H-thymidine is added. The amount of labeled DNA is detected with either an anti-BrdU antibody or by measuring radioactivity and is compared to control cells not contacted with a test compound.
EGF-Induced BrdU Incorporation Assay
(8) 3T3 cell line genetically engineered to express human EGF-R.
(1) Cells are seeded at 8000 cells/well in 10% CS, 2 mM Gin in DMEM, in a 96 well plate. Cells are incubated overnight at 37° C. in 5% CO2.
(2) After 24 hours, the cells are washed with PBS, and then are serum starved in serum free medium (0% CS DMEM with 0.1% BSA) for 24 hours.
(3) On day 3, ligand (EGF, 2 nM, prepared in DMEM with 0.1%/BSA) and test compounds are added to the cells simultaneously. The negative control wells receive serum free DMEM with 0.1% BSA only; the positive control cells receive the ligand (EGF) but no test compound. Test compounds are prepared in serum free DMEM with ligand in a 96 well plate, and serially diluted for 7 test concentrations.
(4) After 20 hours of ligand activation, diluted BrdU labeling reagent (1: 100 in DMEM, 0.1% BSA) is added and the cells are incubated with BrdU (final concentration=10 μM) for 1.5 hours.
(10) The absorbance of the samples are measured at 410 nm (in “dual wavelength” mode with a filter reading at 490 nm, as a reference wavelength) on a Dynatech ELISA plate reader.

[3] = Table 5, in vitro kinase activity
[4] = Table 7, in vitro kinase activity

PDGFR, sequence (P09619 33-1106): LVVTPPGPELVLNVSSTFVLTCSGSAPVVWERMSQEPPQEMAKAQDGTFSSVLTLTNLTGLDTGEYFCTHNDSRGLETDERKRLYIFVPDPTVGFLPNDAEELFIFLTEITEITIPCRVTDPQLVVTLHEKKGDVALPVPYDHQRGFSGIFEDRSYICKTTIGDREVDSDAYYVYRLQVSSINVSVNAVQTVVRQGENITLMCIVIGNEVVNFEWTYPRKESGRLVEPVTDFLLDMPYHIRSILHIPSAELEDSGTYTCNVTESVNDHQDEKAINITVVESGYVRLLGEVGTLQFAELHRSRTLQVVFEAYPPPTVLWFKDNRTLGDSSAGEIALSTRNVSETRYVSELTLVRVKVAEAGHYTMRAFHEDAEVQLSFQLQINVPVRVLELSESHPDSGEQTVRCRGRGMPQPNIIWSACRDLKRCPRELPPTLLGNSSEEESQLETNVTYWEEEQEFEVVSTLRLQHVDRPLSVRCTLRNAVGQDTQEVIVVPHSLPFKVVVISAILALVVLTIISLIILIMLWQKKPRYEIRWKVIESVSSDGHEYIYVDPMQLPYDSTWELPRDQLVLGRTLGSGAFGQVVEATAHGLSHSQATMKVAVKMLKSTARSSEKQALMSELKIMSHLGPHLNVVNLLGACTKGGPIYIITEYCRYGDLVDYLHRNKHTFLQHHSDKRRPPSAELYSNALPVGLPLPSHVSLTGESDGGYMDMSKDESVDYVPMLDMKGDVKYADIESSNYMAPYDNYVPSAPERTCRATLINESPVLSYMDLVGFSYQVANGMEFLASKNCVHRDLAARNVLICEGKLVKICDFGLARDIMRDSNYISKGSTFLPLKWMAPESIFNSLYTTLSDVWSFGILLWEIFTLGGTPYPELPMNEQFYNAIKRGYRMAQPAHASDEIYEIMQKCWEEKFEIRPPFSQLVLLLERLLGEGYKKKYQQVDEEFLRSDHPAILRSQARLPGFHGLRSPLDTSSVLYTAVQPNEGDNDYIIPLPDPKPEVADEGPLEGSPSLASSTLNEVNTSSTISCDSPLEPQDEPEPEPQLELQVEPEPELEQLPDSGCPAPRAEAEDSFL
T1 sequence (P00533 25-1210): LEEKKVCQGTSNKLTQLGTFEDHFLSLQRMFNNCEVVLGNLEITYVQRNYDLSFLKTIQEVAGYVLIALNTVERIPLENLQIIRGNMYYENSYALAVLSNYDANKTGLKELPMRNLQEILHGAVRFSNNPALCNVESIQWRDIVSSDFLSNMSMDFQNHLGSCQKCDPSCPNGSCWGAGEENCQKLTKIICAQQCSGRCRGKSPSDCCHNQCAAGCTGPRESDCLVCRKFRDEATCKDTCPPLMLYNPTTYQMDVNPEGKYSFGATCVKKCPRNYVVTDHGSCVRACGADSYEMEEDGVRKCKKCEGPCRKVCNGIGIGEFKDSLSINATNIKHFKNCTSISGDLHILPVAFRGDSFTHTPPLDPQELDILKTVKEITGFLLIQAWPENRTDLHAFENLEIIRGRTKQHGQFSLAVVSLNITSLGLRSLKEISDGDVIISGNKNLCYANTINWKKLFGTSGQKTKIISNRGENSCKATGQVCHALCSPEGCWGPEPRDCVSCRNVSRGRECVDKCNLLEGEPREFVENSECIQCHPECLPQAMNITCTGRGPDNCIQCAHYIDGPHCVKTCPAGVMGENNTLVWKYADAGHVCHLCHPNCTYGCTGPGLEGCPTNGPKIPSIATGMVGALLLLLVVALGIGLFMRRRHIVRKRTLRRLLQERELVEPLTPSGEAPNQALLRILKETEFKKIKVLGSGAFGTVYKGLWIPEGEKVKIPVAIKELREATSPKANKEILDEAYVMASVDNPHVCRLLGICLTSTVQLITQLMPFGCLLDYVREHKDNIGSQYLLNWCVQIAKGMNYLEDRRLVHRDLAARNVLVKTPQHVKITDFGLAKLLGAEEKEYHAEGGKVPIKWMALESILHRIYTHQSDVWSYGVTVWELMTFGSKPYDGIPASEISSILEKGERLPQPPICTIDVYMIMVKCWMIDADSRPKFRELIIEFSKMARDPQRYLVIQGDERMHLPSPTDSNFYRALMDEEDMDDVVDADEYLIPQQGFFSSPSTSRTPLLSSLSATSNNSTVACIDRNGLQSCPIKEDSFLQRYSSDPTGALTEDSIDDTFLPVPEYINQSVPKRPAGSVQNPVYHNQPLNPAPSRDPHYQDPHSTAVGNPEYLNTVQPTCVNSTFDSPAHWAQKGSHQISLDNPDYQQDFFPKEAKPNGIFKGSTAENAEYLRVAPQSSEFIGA
T2 sequence (P04626 676-1255 limits assumed): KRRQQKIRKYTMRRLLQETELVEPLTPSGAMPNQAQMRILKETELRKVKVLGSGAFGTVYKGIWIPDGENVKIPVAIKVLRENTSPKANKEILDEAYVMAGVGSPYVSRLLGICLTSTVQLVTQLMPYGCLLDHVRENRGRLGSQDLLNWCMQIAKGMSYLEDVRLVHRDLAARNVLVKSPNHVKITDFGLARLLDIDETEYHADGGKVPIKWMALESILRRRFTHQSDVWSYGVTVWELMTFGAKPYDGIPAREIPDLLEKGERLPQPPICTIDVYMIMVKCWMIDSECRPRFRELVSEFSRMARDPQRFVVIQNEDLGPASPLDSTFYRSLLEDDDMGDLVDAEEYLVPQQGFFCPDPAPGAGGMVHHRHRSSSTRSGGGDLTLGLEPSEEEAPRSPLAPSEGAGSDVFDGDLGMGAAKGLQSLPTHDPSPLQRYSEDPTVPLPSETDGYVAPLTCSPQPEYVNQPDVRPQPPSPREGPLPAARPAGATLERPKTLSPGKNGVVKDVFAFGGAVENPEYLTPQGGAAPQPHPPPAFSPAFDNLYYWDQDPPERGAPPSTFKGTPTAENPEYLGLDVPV

Compound | IC50 (EGFR [1]; [3]) [µM] | IC50 (Her2; Table 5) [µM] | IC50 (PDGFR; [3]) [µM] | IC50 (EGFR [2]; Table 5) [µM] | IC50 (EGFR [1]; [4]) [µM] | IC50 (Her2; Table 7) [µM] | IC50 (PDGFR; [4]) [µM] | IC50 (EGFR [2]; Table 7) [µM]
COc1ccc(-c2ccc3c(c2)NC(=O)C3Cc2[nH]c(C)c(CCCN(C)C)c2C)cc1 (centres unmarked) [AAI-22, 3-[4-(3-Dimethylaminopropyl)-3,5-dimethyl-1H-pyrrol-2-ylmethyl]-6-(4-methoxyphenyl)-1,3-dihydroindol-2-one] | > 100 | > 50 | 80 | 27.6 |  |  |  | 
Cc1[nH]c(CC2C(=O)Nc3ccc(Cl)cc32)c(C)c1CCCN(C)C (centres unmarked) [AAI-23, 5-Chloro-3-[4-(3-dimethylaminopropyl)-3,5-dimethyl-1H-pyrrol-2-ylmethyl]-1,3-dihydroindol-2-one] | > 100 | > 50 | 0.81 | 32.2 |  |  |  | 
O=C1Nc2cc(-c3ccccc3)ccc2C1Cc1cccc(F)c1O (centres unmarked) [AAI-24, 3-(3-Fluoro-2-hydroxybenzyl)-6-phenyl-1,3-dihydroindol-2-one] | > 100 | 30.9 | > 100 | > 50 |  |  |  | 
COc1ccc(CC2C(=O)Nc3cc(-c4ccccc4)ccc32)c(O)c1 (centres unmarked) [AAI-25, 3-(2-Hydroxy-4-methoxybenzyl)-6-phenyl-1,3-dihydroindol-2-one] | > 100 | > 50 | > 100 | > 50 |  |  |  | 
Cc1cccc(CC2C(=O)Nc3cccc(CCO)c32)n1 (centres unmarked) [AAI-27, 4-(2-Hydroxyethyl)-3-(6-methylpyridin-2-ylmethyl)-1,3-dihydroindol-2-one] | > 100 | > 50 | > 100 | > 50 |  |  |  | 
CC(C)c1cccc(OCCc2cccc3c2CC(=O)N3)c1 [IN-001, 4-[2-(3-Isopropyl-phenoxy)-ethyl]-1,3-dihydro-indol-2-one] |  |  |  |  | > 100 | 28.9 | > 100 | 32.5
CC(C)c1ccccc1OCCc1cccc2c1CC(=O)N2 [IN-002, 4-[2-(2-Isopropyl-phenoxy)-ethyl]-1,3-dihydro-indol-2-one] |  |  |  |  | > 100 | 30 | > 100 | 41.5
O=C1Cc2c(CCOc3cccc(-c4ccccc4)c3)cccc2N1 [IN-003, 4-[2-(Biphenyl-3-yloxy)-ethyl]-1,3-dihydro-indol-2-one] |  |  |  |  | > 100 | 12.1 | 20.2 | 29
O=C1Nc2cccc(CCO)c2/C1=C\c1ccc(Br)cc1 [IN-004, 3-(4-Bromo-benzylidene)-4-(2-hydroxy-ethyl)-1,3-dihydro-indol-2-one] |  |  |  |  | > 100 | 3.6 | > 100 | 4.7
O=C1Nc2cccc(CCO)c2/C1=C/c1ccccn1 [IN-005, 4-(2-Hydroxy-ethyl)-3-pyridin-2-ylmethylene-1,3-dihydro-indol-2-one] |  |  |  |  | > 100 | 1.6 | > 100 | 3
Cc1cccc(/C=C2\C(=O)Nc3cccc(CCO)c32)n1 [IN-006] |  |  |  |  | > 100 | 6.6 | > 100 | 11.1
COc1ccc(/C=C2\C(=O)Nc3cccc(CCO)c32)cc1-c1cccs1 [IN-008, 4-(2-Hydroxy-ethyl)-3-(4-methoxy-3-thiophen-2-yl-benzylidene)-1,3-dihydro-indol-2-one] |  |  |  |  | > 100 | 2.3 | > 100 | 31.3
Cc1[nH]c(/C=C2\C(=O)Nc3cccc(CCOc4cccc(C(C)C)c4)c32)c(C)c1CCCN(C)C [IN-023] |  |  |  |  | > 100 | 33.8 | 49.1 | 28.7
Cc1[nH]c(/C=C2\C(=O)Nc3cccc(CCOc4ccc(C(C)C)cc4)c32)c(C)c1CCC(=O)O [IN-024, 3-(5-{4-[2-(4-Isopropyl-phenoxy)-ethyl]-2-oxo-1,2-dihydro-indol-3-ylidenemethyl}-2,4-dimethyl-1H-pyrro-3-yl)-propionic acid] |  |  |  |  | > 100 | > 50 | 97.5 | > 50
